Assay results from patent publication US20100041089A1, “IMPROVED METHOD FOR DETECTING CHEMICAL […]” (priority 2006, published 2010).

Tested on: yeast genes (expressed mRNA)
Assay: DNA chip measurement of expressed mRNA of yeast genes after culture with a toxic chemical substance
Type: cell-based, Saccharomyces cerevisiae S288C
Details: for level of expressed mRNA in the presence of chemical substance / level in the absence of chemical substance: cultured two hours with the chemical substance; for The level of expressed mRNA in the presence of chemical substance/The level of expressed mRNA in the absence of chemical substance: cultured two hours with substance
In short: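 Fluorescence ratio, treated over untreated, read by chip scanner; ratio of two or more counted significant. Cells: S288C yeast, YPD, 25° C, chemical added at log phase for 2 h at growth-inhibiting, sublethal level. Cy3/Cy5-labeled cDNA from oligo-dT-purified mRNA.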

SMILES: Cl[C@H]1[C@H](Cl)[C@@H](Cl)[C@@H](Cl)[C@H](Cl)[C@H]1Cl [(7), γ-Hexachlorocyclohexane]
- level of expressed mRNA in the presence of chemical substance / level in the absence of chemical substance (yeast gene YNL058C): 0.7
- level of expressed mRNA in the presence of chemical substance / level in the absence of chemical substance (yeast gene YNL063W): 1.4
- The level of expressed mRNA in the presence of chemical substance/The level of expressed mRNA in the absence of chemical substance (yeast gene YNL074C): 1.1
- The level of expressed mRNA in the presence of chemical substance/The level of expressed mRNA in the absence of chemical substance (yeast gene YNL092W): 1.6
- The level of expressed mRNA in the presence of chemical substance/The level of expressed mRNA in the absence of chemical substance (yeast gene YNL115C): 2.4
- The level of expressed mRNA in the presence of chemical substance/The level of expressed mRNA in the absence of chemical substance (yeast gene YNL156C): 1.9
- level of expressed mRNA in the presence of chemical substance / level in the absence of chemical substance (yeast gene YNL176C): 0.7
- level of expressed mRNA in the presence of chemical substance / level in the absence of chemical substance (yeast gene YNL194C): 1.5
- level of expressed mRNA in the presence of chemical substance / level in the absence of chemical substance (yeast gene YNL200C): 1.2
- The level of expressed mRNA in the presence of chemical substance/The level of expressed mRNA in the absence of chemical substance (yeast gene YNL234W): 1.2
- level of expressed mRNA in the presence of chemical substance / level in the absence of chemical substance (yeast gene YNL253W): 1.3
- level of expressed mRNA in the presence of chemical substance / level in the absence of chemical substance (yeast gene YNL276C): 0.9
- The level of expressed mRNA in the presence of chemical substance/The level of expressed mRNA in the absence of chemical substance (yeast gene YNL281W): 1.2
- The level of expressed mRNA in the presence of chemical substance/The level of expressed mRNA in the absence of chemical substance (yeast gene YNL305C): 1.7
- level of expressed mRNA in the presence of chemical substance / level in the absence of chemical substance (yeast gene YNR051C): 1.3
- The level of expressed mRNA in the presence of chemical substance/The level of expressed mRNA in the absence of chemical substance (yeast gene YNR068C): 1.8
- level of expressed mRNA in the presence of chemical substance / level in the absence of chemical substance (yeast gene YOL026C): 1.8
- The level of expressed mRNA in the presence of chemical substance/The level of expressed mRNA in the absence of chemical substance (yeast gene YOL032W): 1.4
- The level of expressed mRNA in the presence of chemical substance/The level of expressed mRNA in the absence of chemical substance (yeast gene YOL036W): 1.0
- The level of expressed mRNA in the presence of chemical substance/The level of expressed mRNA in the absence of chemical substance (yeast gene YOL047C): 1.3
- The level of expressed mRNA in the presence of chemical substance/The level of expressed mRNA in the absence of chemical substance (yeast gene YOL071W): 2.0
- The level of expressed mRNA in the presence of chemical substance/The level of expressed mRNA in the absence of chemical substance (yeast gene YOL082W): 2.5
- The level of expressed mRNA in the presence of chemical substance/The level of expressed mRNA in the absence of chemical substance (yeast gene YOL083W): 3.1
- The level of expressed mRNA in the presence of chemical substance/The level of expressed mRNA in the absence of chemical substance (yeast gene YOL117W): 1.6
- The level of expressed mRNA in the presence of chemical substance/The level of expressed mRNA in the absence of chemical substance (yeast gene YOL131W): 1.3
- The level of expressed mRNA in the presence of chemical substance/The level of expressed mRNA in the absence of chemical substance (yeast gene YOL150C): 2.4
- The level of expressed mRNA in the presence of chemical substance/The level of expressed mRNA in the absence of chemical substance (yeast gene YOL162W): 2.0
- The level of expressed mRNA in the presence of chemical substance/The level of expressed mRNA in the absence of chemical substance (yeast gene YOR019W): 2.8
- level of expressed mRNA in the presence of chemical substance / level in the absence of chemical substance (yeast gene YOR022C): 1.6
- level of expressed mRNA in the presence of chemical substance / level in the absence of chemical substance (yeast gene YOR087W): 0.9
- level of expressed mRNA in the presence of chemical substance / level in the absence of chemical substance (yeast gene YOR138C): 1.1
- The level of expressed mRNA in the presence of chemical substance/The level of expressed mRNA in the absence of chemical substance (yeast gene YOR197W): 0.9
- level of expressed mRNA in the presence of chemical substance / level in the absence of chemical substance (yeast gene YOR253W): 1.3
- level of expressed mRNA in the presence of chemical substance / level in the absence of chemical substance (yeast gene YOR267C): 0.9
- level of expressed mRNA in the presence of chemical substance / level in the absence of chemical substance (yeast gene YOR325W): 1.2
- level of expressed mRNA in the presence of chemical substance / level in the absence of chemical substance (yeast gene YPL005W): 2.0
- The level of expressed mRNA in the presence of chemical substance/The level of expressed mRNA in the absence of chemical substance (yeast gene YPL087W): 4.2
- level of expressed mRNA in the presence of chemical substance / level in the absence of chemical substance (yeast gene YPL150W): 1.2
- level of expressed mRNA in the presence of chemical substance / level in the absence of chemical substance (yeast gene YPL152W): 1.3
- level of expressed mRNA in the presence of chemical substance / level in the absence of chemical substance (yeast gene YPL168W): 1.2
- level of expressed mRNA in the presence of chemical substance / level in the absence of chemical substance (yeast gene YPL180W): 1.0
- level of expressed mRNA in the presence of chemical substance / level in the absence of chemical substance (yeast gene YPL188W): 1.3
- The level of expressed mRNA in the presence of chemical substance/The level of expressed mRNA in the absence of chemical substance (yeast gene YPL196W): 2.4
- The level of expressed mRNA in the presence of chemical substance/The level of expressed mRNA in the absence of chemical substance (yeast gene YPL206C): 1.2
- level of expressed mRNA in the presence of chemical substance / level in the absence of chemical substance (yeast gene YPL221W): 1.3
- The level of expressed mRNA in the presence of chemical substance/The level of expressed mRNA in the absence of chemical substance (yeast gene YPL222W): 1.1
- level of expressed mRNA in the presence of chemical substance / level in the absence of chemical substance (yeast gene YPL225W): 1.7
- The level of expressed mRNA in the presence of chemical substance/The level of expressed mRNA in the absence of chemical substance (yeast gene YPR023C): 1.2
- level of expressed mRNA in the presence of chemical substance / level in the absence of chemical substance (yeast gene YPR049C): 1.1
- level of expressed mRNA in the presence of chemical substance / level in the absence of chemical substance (yeast gene YPR146C): 1.0
- level of expressed mRNA in the presence of chemical substance / level in the absence of chemical substance (yeast gene YPR148C): 1.6
- The level of expressed mRNA in the presence of chemical substance/The level of expressed mRNA in the absence of chemical substance (yeast gene YPR151C): 4.4
- level of expressed mRNA in the presence of chemical substance / level in the absence of chemical substance (yeast gene YPR172W): 1.2
